According to patent US7396837B2, “Antitumoral analogs of lamellarins” (Pharma Mar, S.A.U., priority 2002, dated 2008):

Legend:
[1] = tested on: SK-MEL-28; assay: SRB colorimetric cell growth inhibition assay, SK-MEL-28; assay type: cell-based; details: Homo sapiens
In short: (§1)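 Quantitation uses the sulforhodamine B reaction on cells exposed to sample for the whole assay period; results (mean ± SD, n = 3 wells) yield GI, TGI and LC.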

[2] = tested on: PANC-1; assay: SRB colorimetric cell growth inhibition assay, PANC-1; assay type: cell-based; details: Homo sapiens
In short: as §1

[3] = tested on: SK-BR-3; assay: SRB colorimetric cell growth inhibition assay, SK-BR-3; assay type: cell-based; details: Homo sapiens
In short: as §1

[4] = tested on: IGROV-ET; assay: SRB colorimetric cell growth inhibition assay, IGROV-ET (ET-743 resistant); assay type: cell-based; details: Homo sapiens
In short: as §1

[5] = target: T1, human topoisomerase I (Homo sapiens, UniProt P11387); assay: Topoisomerase I DNA relaxation assay (supercoiled plasmid DNA); assay type: biochemical; details: supercoiled plasmid DNA, each compound tested at 1 μM, agarose gel with ethidium bromide
T1 sequence (P11387 1-765): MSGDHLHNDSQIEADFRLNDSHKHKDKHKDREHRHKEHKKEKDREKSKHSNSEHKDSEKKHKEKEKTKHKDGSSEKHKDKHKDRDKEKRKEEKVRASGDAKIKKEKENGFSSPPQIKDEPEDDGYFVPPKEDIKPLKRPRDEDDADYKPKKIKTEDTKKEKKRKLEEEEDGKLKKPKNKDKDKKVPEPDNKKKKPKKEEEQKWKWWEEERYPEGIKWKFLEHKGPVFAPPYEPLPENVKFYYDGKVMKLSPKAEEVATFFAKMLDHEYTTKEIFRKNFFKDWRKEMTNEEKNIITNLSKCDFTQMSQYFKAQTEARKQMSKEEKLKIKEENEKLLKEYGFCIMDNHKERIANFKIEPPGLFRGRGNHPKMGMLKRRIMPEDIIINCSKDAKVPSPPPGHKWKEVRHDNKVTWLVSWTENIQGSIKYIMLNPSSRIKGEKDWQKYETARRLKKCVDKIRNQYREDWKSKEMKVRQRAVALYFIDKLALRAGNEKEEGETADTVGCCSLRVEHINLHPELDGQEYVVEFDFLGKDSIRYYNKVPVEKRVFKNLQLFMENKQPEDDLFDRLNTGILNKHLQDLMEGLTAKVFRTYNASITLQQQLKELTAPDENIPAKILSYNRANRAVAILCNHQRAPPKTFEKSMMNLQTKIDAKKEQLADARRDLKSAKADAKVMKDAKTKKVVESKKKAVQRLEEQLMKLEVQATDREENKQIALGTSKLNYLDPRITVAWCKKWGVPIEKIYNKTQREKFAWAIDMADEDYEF
In short: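 Test compounds (1 μM each) were present during topoisomerase I relaxation of supercoiled plasmid DNA. Relaxation was assessed on ethidium bromide-stained agarose gels.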

[6] = tested on: LoVo-Dox; assay: SRB colorimetric cell growth inhibition assay, LoVo-Dox (MDR); assay type: cell-based; details: Homo sapiens
In short: as §1

[7] = tested on: HT-29; assay: SRB colorimetric cell growth inhibition assay, HT-29; assay type: cell-based; details: Homo sapiens
In short: as §1

[8] = tested on: DU-145; assay: SRB colorimetric cell growth inhibition assay, DU-145; assay type: cell-based; details: Homo sapiens
In short: as §1

[9] = tested on: LoVo; assay: SRB colorimetric cell growth inhibition assay, LoVo; assay type: cell-based; details: Homo sapiens, LoVo
In short: as §1

[10] = tested on: K-562; assay: SRB colorimetric cell growth inhibition assay, K-562; assay type: cell-based; details: Homo sapiens
In short: as §1

[11] = tested on: LNCaP; assay: SRB colorimetric cell growth inhibition assay, LNCaP; assay type: cell-based; details: Homo sapiens, LNCaP
In short: as §1

[12] = tested on: A-549; assay: SRB colorimetric cell growth inhibition assay, A-549; assay type: cell-based; details: Homo sapiens
In short: as §1

[13] = tested on: H-MEC-1; assay: SRB colorimetric cell growth inhibition assay, H-MEC-1; assay type: cell-based; details: Homo sapiens, HMEC-1, H-MEC-1
In short: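 Growth inhibition (GI), total growth inhibition (TGI, cytostatic) and lethal concentration (LC, cytotoxic) come from an SRB-based colorimetric measure of growth and viability. Data are triplicate-well means ± SD.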

[14] = tested on: IGROV; assay: SRB colorimetric cell growth inhibition assay, IGROV; assay type: cell-based; details: Homo sapiens, IGROV
In short: as §1

For `COc1cc(-c2c3c4cc(OC)c(O)cc4oc(=O)c3n3ccc4cc(O)c(OC)cc4c23)ccc1O` [Compound 3, lamellarin D, reference compound], the GI50 ([1]; SK-MEL-28, MEL-28, GI=growth inhibition, read-out: GI50 MEL-28) was 88.1 nM, the IC (TGI) ([1]; SK-MEL-28, MEL-28, total growth inhibition (cytostatic effect), read-out: TGI MEL-28) was 1770 nM and the CC50 ([1]; SK-MEL-28, read-out: LC50 MEL-28, MEL-28, cell killing (cytotoxic effect)) was 11300 nM. For the same compound, the GI50 ([2]; PANC-1, PANC-1, GI=growth inhibition, read-out: GI50 PANC-1) was 248 nM, the IC (TGI) ([2]; PANC-1, PANC-1, total growth inhibition (cytostatic effect), read-out: TGI PANC-1) was 2200 nM and the CC50 ([2]; PANC-1, read-out: LC50 PANC-1, PANC-1, cell killing (cytotoxic effect)) was 20000 nM. It also gave a GI50 ([3]; SK-BR-3, SK-BR-3, GI=growth inhibition, read-out: GI50 SK-BR-3) of 106 nM, an IC (TGI) ([3]; SK-BR-3, SK-BR-3, total growth inhibition (cytostatic effect), read-out: TGI SK-BR-3) of 767 nM and a CC50 ([3]; SK-BR-3, read-out: LC50 SK-BR-3, SK-BR-3, cell killing (cytotoxic effect)) of 7690 nM. It also gave a GI50 ([4]; IGROV-ET, GI=growth inhibition, read-out: GI50 IGROV-ET) of 214 nM, an IC (TGI) ([4]; IGROV-ET, total growth inhibition (cytostatic effect), read-out: TGI IGROV-ET) of 1160 nM and a CC50 ([4]; read-out: LC50 IGROV-ET, IGROV-ET, cell killing (cytotoxic effect)) of 20000 nM. For the same compound, the “stimulation of DNA cleavage by topoisomerase I / inhibition of topoisomerase I (nicked DNA band) in DNA relaxation assay” value [5] was “significantly amplified”, the GI50 ([6]; LOVO-DOX, GI=growth inhibition, read-out: GI50 LOVO-DOX) was 420 nM and the IC (TGI) ([6]; LOVO-DOX, total growth inhibition (cytostatic effect), read-out: TGI LOVO-DOX) was 1670 nM. For the same compound, the CC50 ([6]; read-out: LC50 LOVO-DOX, LOVO-DOX, cell killing (cytotoxic effect)) was 20000 nM, the GI50 ([7]; HT-29, HT-29, GI=growth inhibition, read-out: GI50 HT-29) was 5330 nM and the IC (TGI) ([7]; HT-29, HT-29, total growth inhibition (cytostatic effect), read-out: TGI HT-29) was 19000 nM. The CC50 ([7]; HT-29, read-out: LC50 HT-29, HT-29, cell killing (cytotoxic effect)) was 20000 nM, the GI50 ([8]; DU-145, DU-145, GI=growth inhibition, read-out: GI50 DU-145) was 19 nM and the IC (TGI) ([8]; DU-145, DU-145, total growth inhibition (cytostatic effect), read-out: TGI DU-145) was 79.7 nM. It also gave a CC50 ([8]; DU-145, read-out: LC50 DU-145, DU-145, cell killing (cytotoxic effect)) of 20000 nM, a CC50 ([9]; read-out: LC50 LOVO, LOVO, cell killing (cytotoxic effect)) of 2000 nM and a GI50 ([9]; GI=growth inhibition, read-out: GI50 LOVO) of 398 nM. It also gave an IC (TGI) ([9]; total growth inhibition (cytostatic effect), read-out: TGI LOVO) of 965 nM, a GI50 ([10]; K562, K-562, GI=growth inhibition, read-out: GI50 K-562) of 86.9 nM and an IC (TGI) ([10]; K562, K-562, total growth inhibition (cytostatic effect), read-out: TGI K-562) of 791 nM. For the same compound, the CC50 ([10]; K562, read-out: LC50 K-562, K-562, cell killing (cytotoxic effect)) was 8150 nM, the GI50 ([11]; LN-caP, GI=growth inhibition, read-out: GI50 LN-caP) was 123 nM and the IC (TGI) ([11]; LN-caP, total growth inhibition (cytostatic effect), read-out: TGI LN-caP) was 398 nM. For the same compound, the CC50 ([11]; read-out: LC50 LN-caP, LN-caP, cell killing (cytotoxic effect)) was 1060 nM, the GI50 ([12]; A549, A-549, GI=growth inhibition, read-out: GI50 A-549) was 20.4 nM and the IC (TGI) ([12]; A549, A-549, total growth inhibition (cytostatic effect), read-out: TGI A-549) was 1140 nM. The CC50 ([12]; A549, read-out: LC50 A-549, A-549, cell killing (cytotoxic effect)) was 15500 nM, the GI50 ([13]; GI=growth inhibition, read-out: GI50 H-MEC-1) was 113 nM and the IC (TGI) ([13]; total growth inhibition (cytostatic effect), read-out: TGI H-MEC-1) was 3140 nM. It also gave a CC50 ([14]; read-out: LC50 IGROV, IGROV, cell killing (cytotoxic effect)) of 20000 nM, a GI50 ([14]; GI=growth inhibition, read-out: GI50 IGROV) of 236 nM and an IC (TGI) ([14]; total growth inhibition (cytostatic effect), read-out: TGI IGROV) of 1060 nM.
